Test results as given in patent US20130108628A1, “Method for treating cancer pain and/or rescuing analgesic effect of morphine treatment of cancer pain” (priority 2011, published 2013).
Entries after “also recorded” stand apart in the source; their conditions may differ. Peptide text beside a SMILES is read from it.

Columns and labels:
Format in all cases: in vivo, rat
[1] = tested on: EphB1; experiment: Western blot of EphB1 and its phosphorylation in spinal cord of TCI rats; settings: for Increased levels of EphB1: exogenous MMP, no EphB2-Fc
Method: (§1) Protein precipitation procedures in conjunction with Western blots were employed to identify temporal expression of EphB1, ephrinB2 protein and their phosphorylation. Protocols were similar to those described previously (Liu W T, et al., FASEB J 2009; 23:90-8; Liu W T, et al., J Neurosci 2010; 30:7613-23). EphB1 and ephrinB2 were immunoprecipitated from 2 mg total protein/int tissue lysate using an anti-EphB1 antibody (2 μg; Santa Cruz Technology, SCT) complex with protine G-agarose (Invitrogen) and wheat germ agglutinin (WGA) linked to agarose (Sigma), respectively. EphrinB2 and its phosphorylation were detected using anti-ephrinB2 (C20, SCT) and anti-phosphotyrosine antibody PY99 (SCT), respectively (Georgakopoulos A, et al., EMBO J 2006; 25:1242-52). EphB1 and its phosphorylation were detected using anti-EphB1 antibody (Q20, SCT) and phosphotyrosine antibody 4G 10 (Upstate Biotechnology), respectively (Compagni A, et al., Dev Cell 2003; 5:217-30). NR2A immunoprecipitation was performed using anti-NR2A antibody followed by adsorption to protein G-agarose. Whole cell protein extracts lysates were used to identify temporal expression of the phosphorylated protein levels of NR1(pNR1), NR2B(pNR2B), Src(pSrc), ERK(pERK), CaMKII(pCaMKII), CREB(pCREB) and GAPDH. The primary antibodies were used include pNR1(Ser897), 1:800 (Millipore); pNR2B(Tyr1472), 1:300 (Chemicon); pSrc(Tyr418), 1:800 (Abeam, Cambridge, UK); pERK1/2(Thr202/Tyr204), 1:500; pCaMKII(Thr286), 1:1000 (Cell Signaling Technology); GAPDH, 1:1000 (Sigma); GFAP and pCREB (Ser133)(SCT). The filters were then developed using ECL reagents (Perkinelmer) with secondary antibodies (Chemicon). Data was analyzed with a Molecular Imager (Gel Doc™ XR, 170-8170) and the associated software Quantity One-4.6.5 (Bio-Rad Laboratories).

[2] = tested on: EphB1; experiment: Western blot of EphB1 and pEphB1 in spinal cord of naive rats; settings: for Activation (phosphorylation) of EphB1 / Expression of EphB1 protein: exogenous MMP, no EphB2-Fc
Method: as §1

[3] = Morphine analgesia on thermal hyperalgesia in TCI rats
Method: Tumor cells were extracted from ascitic fluid of rats that received Walker-256 rat mammary gland carcinoma cells. Tumor cells implantation (TCI) was mimicked by injecting the cells (1×10^5 cells/μl, 5 μl) into the intra-medullary space of the right tibia to induce bone cancer in rats (Medhurst S J, et al., Pain 2002; 96:129-40).
Thermal hyperalgesia was determined by the significant shortened latency of foot withdrawal in response to heat stimulation. Mechanical allodynia was indicated by a significant decrease in the threshold of paw withdrawal to mechanical indentation of the plantar surface of each hindpaw. The protocols were similar to those described previously (Song X J, et al., J Neurophysiol 2006; 95:479-92; Wang Z B, et al., Pain 2005; 114:266-77).

[4] = tested on: EphB1; experiment: Western blot of EphB1 after acute or chronic morphine treatment
Method: as §1

**Q.** Which “EphB2-Fc-induced downregulation of EphB1” value ([1]; MMP2i 10 μg or FN439 100 μg) does the source give for `CC(C)C[C@@H](NC(=O)[C@@H]1CCCN1C(=O)CNC(=O)c1ccc(N)cc1)C(=O)N[C@H](C)C(=O)NO` [FN439] (HELM PEPTIDE1{[Nc1ccc(C(=O)[*:2])cc1].G.P.[dL].[dA].[ON[*:1]]}$$$$V2.0) here?
**A.** reversed; also recorded: completely prevented

**Q.** And the “TCI-induced upregulation of EphB1, without EphB2-Fc treatment” value ([1]; blocking MMP-2 or MMP-9)?
**A.** inhibited

**Q.** And the “EphB2-Fc-induced downregulation of EphB1” value ([2]; MMP2i 10 μg or FN439 100 μg)?
**A.** reversed; also recorded: completely prevented

**Q.** And the “EphB1 level, without EphB2-Fc treatment” value ([2]; blocking MMP-2 or MMP-9)?
**A.** keeping EphB1 at its physiological levels

**Q.** With `CN1CC[C@]23c4c5ccc(O)c4O[C@H]2[C@@H](O)C=C[C@H]3[C@H]1C5` [morphine] as the molecule, how does the Thermal hyperalgesia ([3]; morphine 10 mg/kg s.c. twice a day) read?
**A.** significantly suppressed

**Q.** And the “Time after which the analgesic effect decreased and disappeared (tolerance)” value ([3]; repeated morphine 10 mg/kg s.c. twice a day)?
**A.** 6 to 7 days

**Q.** And the “Expression of EphB1 and its phosphorylation” value ([4]; acute morphine treatment (100 mg/kg, then 10 mg/kg at 24 h))?
**A.** significantly increased

**Q.** And the “Expression of EphB1 and its phosphorylation” value ([4]; acute morphine treatment (100 mg/kg, then 10 mg/kg at 24 h), listed as Mor)?
**A.** upregulates

**Q.** What about the “Expression of EphB1 and its phosphorylation” value ([4]; chronic morphine treatment (10 mg/kg)) of the same molecule?
**A.** significantly increased

**Q.** Which results are given for “MMP-9: exogenous matrix metalloproteinase-9 administered to rats”?
**A.** Increased levels of EphB1 [1]: did not significantly alter; Activation (phosphorylation) of EphB1 [2]: an increase rather than a decline; Expression of EphB1 protein [2]: without altering

B1: MMP-2: exogenous matrix metalloproteinase-2 administered to rats (protein, UniProt P33436 110-662, looked up)
72 kDa type IV collagenase: YNFFPRKPKWDKNQITYRIIGYTPDLDPETVDDAFARALKVWSDVTPLRFSRIHDGEADIMINFGRWEHGDGYPFDGKDGLLAHAFAPGTGVGGDSHFDDDELWTLGEGQVVRVKYGNADGEYCKFPFLFNGREYSSCTDTGRSDGFLWCSTTYNFEKDGKYGFCPHEALFTMGGNGDGQPCKFPFRFQGTSYNSCTTEGRTDGYRWCGTTEDYDRDKKYGFCPETAMSTVGGNSEGAPCVFPFTFLGNKYESCTSAGRSDGKVWCATTTNYDDDRKWGFCPDQGYSLFLVAAHEFGHAMGLEHSQDPGALMAPIYTYTKNFRLSNDDIKGIQELYGPSPDADTDTGTGPTPTLGPVTPEICKQDIVFDGIAQIRGEIFFFKDRFIWRTVTPRDKPTGPLLVATFWPELPEKIDAVYEAPQEEKAVFFAGNEYWVYSASTLERGYPKPLTSLGLPPDVQQVDAAFNWSKNKKTYIFSGDKFWRYNEVKKKMDPGFPKLIADSWNAIPDNLDAVVDLQGGGHSYFFKGAYYLKLENQSLKSVKFGSIKSDWLGC
**Q.** For B1, which “Increased levels of EphB1” value [1] is on record?
**A.** did not significantly alter

**Q.** What about the “Activation (phosphorylation) of EphB1” value [2] of the same molecule?
**A.** an increase rather than a decline

**Q.** And the “Expression of EphB1 protein” value [2]?
**A.** without altering
